Some targets named below: Vasopressin V1a receptor (Homo sapiens, UniProt P37288); Cannabinoid receptor 1 (Homo sapiens, UniProt P21554); Melanocortin receptor 3 (Homo sapiens, UniProt P41968).
Assay [1] concerns the target Neuronal acetylcholine receptor subunit alpha-4 (Homo sapiens, UniProt P43681).
The target in the next assay is Histamine H2 receptor (Homo sapiens, UniProt P25021). The assay is classed as functional, cell-based.
For assay [2], the target named is cGMP-inhibited 3',5'-cyclic phosphodiesterase 3A (Homo sapiens, UniProt Q14432). The assay is classed as functional.
Sequence of cGMP-inhibited 3',5'-cyclic phosphodiesterase 3A (Q14432 whole entry): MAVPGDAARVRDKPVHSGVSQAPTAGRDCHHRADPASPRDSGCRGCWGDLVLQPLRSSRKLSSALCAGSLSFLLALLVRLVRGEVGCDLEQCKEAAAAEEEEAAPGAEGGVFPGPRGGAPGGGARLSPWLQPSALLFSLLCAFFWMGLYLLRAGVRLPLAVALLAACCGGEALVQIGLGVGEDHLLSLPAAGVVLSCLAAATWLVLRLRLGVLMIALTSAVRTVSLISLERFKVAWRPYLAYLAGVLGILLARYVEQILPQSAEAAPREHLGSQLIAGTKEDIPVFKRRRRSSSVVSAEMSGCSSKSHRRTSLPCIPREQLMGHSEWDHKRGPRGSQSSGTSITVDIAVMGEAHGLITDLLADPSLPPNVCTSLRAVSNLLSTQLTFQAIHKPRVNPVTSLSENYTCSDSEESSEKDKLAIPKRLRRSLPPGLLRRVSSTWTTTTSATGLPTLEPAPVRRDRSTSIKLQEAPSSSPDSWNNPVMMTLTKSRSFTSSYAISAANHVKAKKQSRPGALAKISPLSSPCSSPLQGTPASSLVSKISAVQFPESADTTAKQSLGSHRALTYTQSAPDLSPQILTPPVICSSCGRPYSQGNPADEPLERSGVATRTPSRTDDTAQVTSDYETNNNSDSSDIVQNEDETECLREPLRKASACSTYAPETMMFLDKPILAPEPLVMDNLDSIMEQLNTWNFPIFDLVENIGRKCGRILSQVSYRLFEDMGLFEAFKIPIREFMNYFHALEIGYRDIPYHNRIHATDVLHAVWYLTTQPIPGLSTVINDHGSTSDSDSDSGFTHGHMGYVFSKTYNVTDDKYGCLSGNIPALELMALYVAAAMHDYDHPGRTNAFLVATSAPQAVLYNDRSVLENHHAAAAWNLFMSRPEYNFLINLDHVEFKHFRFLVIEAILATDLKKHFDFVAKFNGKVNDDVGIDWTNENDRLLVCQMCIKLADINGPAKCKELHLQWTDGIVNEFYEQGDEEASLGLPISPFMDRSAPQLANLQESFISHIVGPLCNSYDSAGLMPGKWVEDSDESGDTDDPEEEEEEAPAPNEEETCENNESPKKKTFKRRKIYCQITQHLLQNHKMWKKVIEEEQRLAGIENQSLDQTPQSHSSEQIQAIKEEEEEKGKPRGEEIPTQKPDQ
The target in the next assay is T1, Adenosine receptor A1 (Homo sapiens, UniProt P30542).
T1 sequence (P30542 whole entry): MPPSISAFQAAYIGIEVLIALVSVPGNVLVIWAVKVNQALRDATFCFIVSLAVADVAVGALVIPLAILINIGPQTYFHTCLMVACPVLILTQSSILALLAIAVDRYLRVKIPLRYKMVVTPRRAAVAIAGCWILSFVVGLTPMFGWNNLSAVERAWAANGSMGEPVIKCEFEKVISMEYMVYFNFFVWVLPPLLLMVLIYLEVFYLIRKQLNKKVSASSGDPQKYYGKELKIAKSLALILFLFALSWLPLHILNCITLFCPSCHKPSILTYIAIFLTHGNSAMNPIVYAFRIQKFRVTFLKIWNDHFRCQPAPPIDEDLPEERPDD

The target in assay [3] is Beta-2 adrenergic receptor (Homo sapiens, UniProt P07550).
Sequence of Beta-2 adrenergic receptor (P07550 whole entry): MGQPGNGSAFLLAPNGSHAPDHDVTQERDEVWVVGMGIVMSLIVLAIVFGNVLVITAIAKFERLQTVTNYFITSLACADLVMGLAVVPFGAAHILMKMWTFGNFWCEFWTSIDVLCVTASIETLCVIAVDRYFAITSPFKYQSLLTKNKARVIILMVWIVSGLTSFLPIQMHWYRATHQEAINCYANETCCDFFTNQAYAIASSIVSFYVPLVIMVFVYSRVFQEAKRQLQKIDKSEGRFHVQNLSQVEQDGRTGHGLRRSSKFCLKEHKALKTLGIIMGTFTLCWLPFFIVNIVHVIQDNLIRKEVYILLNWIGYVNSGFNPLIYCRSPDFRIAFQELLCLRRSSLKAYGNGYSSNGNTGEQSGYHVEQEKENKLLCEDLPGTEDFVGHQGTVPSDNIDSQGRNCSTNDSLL
For assay [4], the target named is Glutamate receptor ionotropic, NMDA 1 (Rattus norvegicus, UniProt P35439).
Assay [5] deals with T2, Alpha-1A adrenergic receptor (Homo sapiens, UniProt P35348).
T2 sequence (P35348 whole entry): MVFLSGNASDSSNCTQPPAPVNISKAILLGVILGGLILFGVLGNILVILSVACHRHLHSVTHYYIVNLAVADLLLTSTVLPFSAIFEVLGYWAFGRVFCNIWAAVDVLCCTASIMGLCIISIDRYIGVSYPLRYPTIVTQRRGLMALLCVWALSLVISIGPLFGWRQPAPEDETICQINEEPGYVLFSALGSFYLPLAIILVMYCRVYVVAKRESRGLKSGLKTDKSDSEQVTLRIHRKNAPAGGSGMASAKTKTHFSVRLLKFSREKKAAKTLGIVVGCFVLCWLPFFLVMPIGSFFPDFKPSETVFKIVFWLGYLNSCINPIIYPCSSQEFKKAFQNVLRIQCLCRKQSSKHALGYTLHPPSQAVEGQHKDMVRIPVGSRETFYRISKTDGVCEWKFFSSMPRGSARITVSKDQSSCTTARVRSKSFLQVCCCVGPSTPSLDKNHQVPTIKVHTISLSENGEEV
The assay is classed as functional, cell-based.

Assay [6] concerns the target T3, Alpha-2A adrenergic receptor (Homo sapiens, UniProt P08913).
T3 sequence (P08913 whole entry): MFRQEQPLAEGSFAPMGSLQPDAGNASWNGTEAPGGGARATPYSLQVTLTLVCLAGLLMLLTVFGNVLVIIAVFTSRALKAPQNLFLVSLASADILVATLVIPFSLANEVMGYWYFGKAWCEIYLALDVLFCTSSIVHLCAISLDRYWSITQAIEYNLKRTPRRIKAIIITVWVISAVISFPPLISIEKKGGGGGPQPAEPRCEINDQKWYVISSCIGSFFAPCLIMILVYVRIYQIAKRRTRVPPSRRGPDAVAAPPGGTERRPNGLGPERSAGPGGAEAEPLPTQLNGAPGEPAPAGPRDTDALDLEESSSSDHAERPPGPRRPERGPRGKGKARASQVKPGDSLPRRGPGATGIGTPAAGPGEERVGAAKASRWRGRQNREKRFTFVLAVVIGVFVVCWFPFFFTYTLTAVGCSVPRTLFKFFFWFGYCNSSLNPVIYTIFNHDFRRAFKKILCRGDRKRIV
Type of assay: functional, cell-based.

Assay [7] deals with T4, 5-hydroxytryptamine receptor 3A (Homo sapiens, UniProt P46098).
T4 sequence (P46098 whole entry): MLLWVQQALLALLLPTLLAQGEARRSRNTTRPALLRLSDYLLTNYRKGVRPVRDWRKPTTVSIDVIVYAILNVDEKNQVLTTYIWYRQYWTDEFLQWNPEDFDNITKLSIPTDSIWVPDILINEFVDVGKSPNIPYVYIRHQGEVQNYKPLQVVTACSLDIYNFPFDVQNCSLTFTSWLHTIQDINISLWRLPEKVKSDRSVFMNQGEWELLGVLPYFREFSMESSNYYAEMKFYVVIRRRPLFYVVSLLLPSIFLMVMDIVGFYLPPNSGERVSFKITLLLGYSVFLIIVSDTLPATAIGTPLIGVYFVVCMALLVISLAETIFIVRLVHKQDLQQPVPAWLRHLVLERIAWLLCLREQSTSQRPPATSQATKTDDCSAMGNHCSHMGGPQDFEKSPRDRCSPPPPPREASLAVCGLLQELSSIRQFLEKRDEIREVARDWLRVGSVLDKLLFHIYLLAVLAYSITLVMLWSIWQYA
The assay is classed as functional.

A further assay concerns the target T5, Endothelin-1 receptor (Homo sapiens, UniProt P25101).
T5 sequence (P25101 whole entry): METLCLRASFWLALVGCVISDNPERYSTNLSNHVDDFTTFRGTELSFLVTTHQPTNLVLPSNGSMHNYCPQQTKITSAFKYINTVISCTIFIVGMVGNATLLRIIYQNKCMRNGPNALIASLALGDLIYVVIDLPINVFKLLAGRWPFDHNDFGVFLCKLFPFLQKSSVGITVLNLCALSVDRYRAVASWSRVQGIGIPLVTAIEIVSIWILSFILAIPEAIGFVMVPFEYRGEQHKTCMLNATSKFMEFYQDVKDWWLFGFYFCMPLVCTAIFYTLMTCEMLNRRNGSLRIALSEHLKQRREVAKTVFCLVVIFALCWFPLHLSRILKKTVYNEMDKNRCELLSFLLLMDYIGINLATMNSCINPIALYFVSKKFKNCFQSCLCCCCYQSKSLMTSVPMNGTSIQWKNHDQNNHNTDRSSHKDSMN

Usually AC50 stands for the concentration at which the activity in the assay is half-maximal. High values mean activity only at high concentration, low ones activity at low concentration.

Molecules are shown by their SMILES.
Further: assay procedure not described here.

Sequence of Neuronal acetylcholine receptor subunit alpha-4 (P43681 whole entry): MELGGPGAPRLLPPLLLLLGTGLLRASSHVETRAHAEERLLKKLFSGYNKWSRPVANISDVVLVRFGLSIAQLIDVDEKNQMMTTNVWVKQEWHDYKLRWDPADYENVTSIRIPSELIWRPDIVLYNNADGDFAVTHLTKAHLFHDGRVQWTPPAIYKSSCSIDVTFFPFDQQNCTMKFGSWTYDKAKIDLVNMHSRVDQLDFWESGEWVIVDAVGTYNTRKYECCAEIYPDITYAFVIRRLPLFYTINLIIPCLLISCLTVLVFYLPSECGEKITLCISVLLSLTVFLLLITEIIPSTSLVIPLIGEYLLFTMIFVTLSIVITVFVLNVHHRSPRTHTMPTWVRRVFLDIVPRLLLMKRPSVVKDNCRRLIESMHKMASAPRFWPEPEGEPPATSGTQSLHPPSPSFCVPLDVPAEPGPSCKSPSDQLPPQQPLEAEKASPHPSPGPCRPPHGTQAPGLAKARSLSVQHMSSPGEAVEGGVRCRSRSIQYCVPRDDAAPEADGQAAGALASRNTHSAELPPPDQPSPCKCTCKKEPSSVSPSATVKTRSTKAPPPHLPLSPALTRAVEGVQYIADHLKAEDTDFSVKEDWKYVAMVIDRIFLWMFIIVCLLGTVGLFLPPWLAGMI
Sequence of Histamine H2 receptor (P25021 whole entry): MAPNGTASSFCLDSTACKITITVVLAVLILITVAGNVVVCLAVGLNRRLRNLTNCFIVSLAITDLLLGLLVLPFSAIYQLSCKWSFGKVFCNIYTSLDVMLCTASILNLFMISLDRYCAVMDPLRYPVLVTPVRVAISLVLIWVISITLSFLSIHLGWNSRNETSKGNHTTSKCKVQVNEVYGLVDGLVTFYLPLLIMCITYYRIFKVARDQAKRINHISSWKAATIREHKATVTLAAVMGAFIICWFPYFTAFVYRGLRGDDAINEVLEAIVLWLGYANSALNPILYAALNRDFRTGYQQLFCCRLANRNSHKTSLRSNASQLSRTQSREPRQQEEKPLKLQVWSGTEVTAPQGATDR
Sequence of Cannabinoid receptor 1 (P21554 whole entry): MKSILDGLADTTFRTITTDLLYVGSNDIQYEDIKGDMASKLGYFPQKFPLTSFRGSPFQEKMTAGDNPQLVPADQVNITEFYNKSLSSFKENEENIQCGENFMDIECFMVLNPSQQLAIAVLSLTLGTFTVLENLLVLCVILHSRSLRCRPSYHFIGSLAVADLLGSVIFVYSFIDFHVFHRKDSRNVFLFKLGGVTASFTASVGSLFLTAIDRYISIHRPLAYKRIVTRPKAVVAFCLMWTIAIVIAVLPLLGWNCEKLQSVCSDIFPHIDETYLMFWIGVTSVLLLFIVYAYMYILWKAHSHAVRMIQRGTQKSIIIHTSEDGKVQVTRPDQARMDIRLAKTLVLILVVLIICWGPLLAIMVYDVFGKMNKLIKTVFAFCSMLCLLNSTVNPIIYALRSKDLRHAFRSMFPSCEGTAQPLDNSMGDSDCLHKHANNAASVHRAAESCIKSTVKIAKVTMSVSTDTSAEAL
Sequence of Melanocortin receptor 3 (P41968 whole entry): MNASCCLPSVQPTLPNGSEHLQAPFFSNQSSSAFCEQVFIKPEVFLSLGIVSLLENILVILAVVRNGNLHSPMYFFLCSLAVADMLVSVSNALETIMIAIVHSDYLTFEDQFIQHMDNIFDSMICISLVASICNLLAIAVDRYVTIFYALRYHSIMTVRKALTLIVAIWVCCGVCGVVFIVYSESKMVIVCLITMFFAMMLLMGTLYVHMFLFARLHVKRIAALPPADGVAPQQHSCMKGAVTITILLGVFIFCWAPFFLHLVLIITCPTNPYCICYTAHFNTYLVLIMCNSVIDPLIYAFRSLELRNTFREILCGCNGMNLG
Sequence of Vasopressin V1a receptor (P37288 whole entry): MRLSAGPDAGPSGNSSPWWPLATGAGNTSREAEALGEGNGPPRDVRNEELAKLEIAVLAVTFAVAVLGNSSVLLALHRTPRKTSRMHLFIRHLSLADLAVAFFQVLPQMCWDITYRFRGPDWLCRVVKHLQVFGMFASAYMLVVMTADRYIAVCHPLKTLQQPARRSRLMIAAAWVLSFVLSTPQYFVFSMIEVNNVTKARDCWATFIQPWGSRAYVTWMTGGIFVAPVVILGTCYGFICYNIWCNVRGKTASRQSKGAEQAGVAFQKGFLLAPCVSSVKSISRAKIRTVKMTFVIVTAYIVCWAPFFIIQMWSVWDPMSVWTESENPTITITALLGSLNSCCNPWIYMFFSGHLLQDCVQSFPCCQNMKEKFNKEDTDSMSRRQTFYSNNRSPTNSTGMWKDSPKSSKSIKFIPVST

Regarding `C[C@]12C=CC(=O)N[C@@H]1CC[C@@H]1[C@@H]2CC[C@]2(C)[C@@H](C(=O)Nc3cc(C(F)(F)F)ccc3C(F)(F)F)CC[C@@H]12` [DUTASTERIDE], the concentration at half-maximal activity (AC50) is over 10 µM in assay [1]; over 10 µM at Histamine H2 receptor; over 30 µM in [2]; over 10 µM at Adenosine receptor A1; over 10 µM in assay [3]; over 10 µM at Vasopressin V1a receptor. Further, the AC50 in assay [4] was over 10 µM; in [5] it was over 30 µM; at Cannabinoid receptor 1, over 10 µM; on Melanocortin receptor 3, over 10 µM; in [6], over 10 µM; in [7], over 30 µM.

On to `COc1ccc(CC2c3cc(OC)c(OC)cc3CC[N+]2(C)CCC(=O)OCCCCCOC(=O)CC[N+]2(C)CCc3cc(OC)c(OC)cc3C2Cc2ccc(OC)c(OC)c2)cc1OC` (configuration not stated), for which the AC50 in assay [1] was 3.63 µM; on Histamine H2 receptor, over 30 µM; in assay [2], over 30 µM; at Adenosine receptor A1, over 30 µM; in [3] it was over 30 µM; at Vasopressin V1a receptor it was over 30 µM. Also, the half-maximal activity concentration (AC50) in [4] was over 30 µM; in assay [5], over 30 µM; at Cannabinoid receptor 1, over 30 µM; at Melanocortin receptor 3, over 30 µM; in [6] it was 3.6 µM; in assay [7], over 30 µM.

Take `CC(N)C12CC3CC(CC(C3)C1)C2` (configuration not stated) [RIMANTADINE]: the AC50 in assay [1] is over 10 µM; at Histamine H2 receptor, over 10 µM; in assay [2] it was over 30 µM; on Adenosine receptor A1, over 10 µM; in assay [3] it was over 10 µM; in assay [4], over 10 µM. Also, the AC50 on Cannabinoid receptor 1 is over 10 µM; on Melanocortin receptor 3 it was over 10 µM; in [6], over 10 µM; in [7] it was over 30 µM.

In the case of `COc1ccccc1Oc1c(NS(=O)(=O)c2ccc(C(C)(C)C)cc2)nc(-c2ncccn2)nc1OCCO` [BOSENTAN], the AC50 in assay [1] is over 30 µM; at Histamine H2 receptor, over 10 µM; in [2] it was over 30 µM; at Adenosine receptor A1 it was over 30 µM; in assay [3], over 10 µM; at Vasopressin V1a receptor, over 30 µM. The AC50 in [4] is over 10 µM; in assay [5], over 30 µM; on Cannabinoid receptor 1, over 10 µM; at Melanocortin receptor 3 it was over 30 µM; in [6], over 10 µM; in assay [7], over 30 µM.

As to `O=C1CN(/N=C/c2ccc(-c3ccc([N+](=O)[O-])cc3)o2)C(O)=N1` [DANTROLENE], the AC50 in assay [1] was over 10 µM; at Histamine H2 receptor, over 10 µM; in assay [2], over 30 µM; at Adenosine receptor A1, 25 µM; in [3] it was over 10 µM; at Vasopressin V1a receptor, over 10 µM. The AC50 in assay [4] was over 10 µM; at Cannabinoid receptor 1 it was over 10 µM; on Melanocortin receptor 3 it was over 10 µM; in [6], over 10 µM; in assay [7] it was over 30 µM.

As for `CN(C)CC[C@@H](c1ccc(Cl)cc1)c1ccccn1` [DEXCHLORPHENIRAMINE], the AC50 in assay [1] was over 30 µM; at Histamine H2 receptor it was over 30 µM; in assay [2], over 10 µM; on Adenosine receptor A1, over 30 µM; in assay [3] it was over 30 µM; at Vasopressin V1a receptor it was over 30 µM. Besides, the AC50 (on Endothelin-1 receptor; in [4]; in [5]; on Melanocortin receptor 3; in [6]; in assay [7]) was over 30 µM in each case.

With `O=C1C(CC[S+]([O-])c2ccccc2)C(=O)N(c2ccccc2)N1c1ccccc1` (configuration not stated) [SULFINPYRAZONE], the AC50 in assay [1] is over 10 µM; on Histamine H2 receptor it was over 10 µM; in assay [2], over 30 µM; at Adenosine receptor A1, over 10 µM; in assay [3], over 10 µM; at Vasopressin V1a receptor it was over 10 µM. In addition, the concentration at half-maximal activity (AC50) in assay [4] is over 10 µM; in [5] it was over 30 µM; on Cannabinoid receptor 1, over 10 µM; at Melanocortin receptor 3, over 10 µM; in [6] it was over 30 µM; in assay [7], over 30 µM.

In the case of `CCCC(CCC)C(=O)O` [VALPROIC ACID], the AC50 in assay [1] was over 10 µM; in assay [2] it was over 30 µM; on Adenosine receptor A1, over 30 µM; in [3] it was over 10 µM; on Vasopressin V1a receptor it was over 30 µM; at Endothelin-1 receptor, over 30 µM. Further, the AC50 is over 10 µM in assay [4]; over 10 µM at Cannabinoid receptor 1; over 30 µM on Melanocortin receptor 3; over 10 µM in assay [6]; over 30 µM in assay [7].

`CN1C(C(=O)Nc2ccccn2)=C(O)c2ccccc2S1(=O)=O` [PIROXICAM]: the AC50 in assay [1] was over 10 µM; at Histamine H2 receptor, over 30 µM; in assay [2], over 30 µM; at Adenosine receptor A1, over 10 µM; in assay [3] it was over 10 µM; on Vasopressin V1a receptor, over 10 µM. Also, the AC50 is over 10 µM in assay [4]; over 10 µM at Cannabinoid receptor 1; over 10 µM at Melanocortin receptor 3; over 10 µM in [6]; over 30 µM in assay [7].

With `C=C[C@H]1C[N@@]2CC[C@H]1C[C@@H]2[C@@H](O)c1ccnc2ccc(OC)cc12` [QUINIDINE], the AC50 on Histamine H2 receptor was over 10 µM; in assay [2] it was over 30 µM; at Adenosine receptor A1 it was over 30 µM; in assay [3], over 10 µM; at Vasopressin V1a receptor, over 30 µM; in [4], over 10 µM. Moreover, the concentration at half-maximal activity (AC50) was over 10 µM at Cannabinoid receptor 1, over 30 µM on Melanocortin receptor 3, 12 µM in assay [6] and over 30 µM in [7].

Take `C[C@@H](Oc1cc(-c2cnn(C3CCNCC3)c2)cnc1N)c1c(Cl)ccc(F)c1Cl` [CRIZOTINIB]: the AC50 in [2] is over 30 µM; at Adenosine receptor A1 it was over 30 µM; in [3], over 10 µM; at Vasopressin V1a receptor it was over 30 µM; on Endothelin-1 receptor, over 30 µM; at Cannabinoid receptor 1 it was over 10 µM. The half-maximal activity concentration (AC50) at Melanocortin receptor 3 is 19.9 µM; in assay [6] it was 15 µM; in [7] it was over 30 µM.

(Values after ChEMBL document CHEMBL5291721, “A preclinical secondary pharmacology resource illuminates target-adverse drug reaction associations of marketed drugs” (Nat Commun, 2023).)
